Test results taken from patent EP2229935A1, “Peptide derivatives or pharmaceutically acceptable salts thereof, method for producing the same, use of said derivatives and pharmaceutical composition” (Nebolsin, Vladimir Evgenievich, priority 1997, dated 1999).
Like-named read-outs stand apart in the source and are kept apart here. Marks after values point to notes of the source that are not given here.

Assays:
[1] = tested on: mongrel male mice; test: Delayed hypersensitivity induced by picryl chloride (TCB), local ointment; type: in vivo
Procedure: Effect study of the compounds on the delayed type hypersensitivity reaction induced in mice by 2.4.6-trichlorobenzol (TCB) was carried out according to the method of Tarayre et al. [Tarayre J.P., Barbara M., Aliaga M., Tisne-Versilles. Comparative actions of immunosuppressants, glucocorticoids and non-steroidal antiinflammatory drugs on various models of delayed hypersensitivity and on a non-immune inflammation in mice. Arzneim.-Forsch. Drug Res. (1990), Vol. 40, pip.1125-1131].
Studies were conducted on mongrel male mice with initial body mass 30-35 g. Each group included 10 animals. Mice were sensitized with 0.1 ml 3% TCB solution in acetone application on a shaved abdominal area. In 7 days, the anaphylaxis-provoking TCB dose (0.025 ml of 3% solution) was applied on both surfaces of the right ear. In 30 minutes 0.05 ml of the test ointment were rubbed into the same surfaces. 24 hours after edema induction, mice were sacrified, ears were cut off and weighed. Allergic reaction intensity was assessed by change in weight in grams of the right ear (the test one) in relation to the left ear (the control ear).
Allergic reaction inhibition expressed in percent was calculated according to the formula: 100-[(R-L(exper.))/(L):(R-L(control))/(L)x100](%) [formula] where R - the right ear weight, L - the left ear weight.
The test compounds were applied on the ear in the form of 1% and 5% ointment the base of which were 10% methylcellulose solution and propylene glycol at 1:1 ratio.
Groups of animals: • Group 1 - control, ointment base without active substance was applied on the ear of animals. • Group 2 - ointment base comprising 1% compound III was applied on the ear of animals. • Group 3 - ointment base comprising 1% compound XVII was applied on the ear of animals. • Group 4 - ointment base comprising 5% compound XLVIII was applied on the ear of animals.

[2] = tested on: superoxide anion-radical; test: Superoxide anion-radical formation in the xantine-xantine oxidase system (chemiluminescence); type: biochemical
Procedure: Effect of the compounds of general formula (I) on change in chemiluminescence (CL) determined by hydroxyl radical ( OH) and superoxide anion-radical (O2-), in the model chemical and enzymatic systems.
5 to 10 ml of the test compounds dissolved in water were at needed concentration introduced into a cuvette. A total sample volume was 0.5 ml. • B. Superoxide anion-radical in the mixture of xantine and xantine oxidase [Afanas'ev I., Suslova T., Cheremisina Z. et al. Study of antioxidant properties of metal aspartates.
Incubation medium comprised 5 mM KH2PO4; 0.2 IU/ml xantine oxidase. Xantine at concentration 1 mM was introduced into sample through a dispencer. Luceginine (0.2 mM) was used in this system as luminiscence sensitizer.
CL signal indication was performed by its integration every 10 seconds for 5 minutes. CL flash recording duration after mixing ingredients, depended on a particular process kinetics. For each system, CL light sum (mV) was determined in the control samples without preparations (I-) and in samples comprising respective concentrations of preparations (I+). To estimate CL inhibition (activation) degree, the I+/I- ratio (in relative units) was found in the studied systems.
AOF formation and effect of the test compounds on this process were recorded on the Luminometer-1251 instrument (LKB, Sweden).
Because of such "distension" of the kinetic curve, chemiluminescence light sum was recorded during the first 3-5 minutes which reflected a total amount of light quantums produced in the system till achieving the maximum CL intensity values.

[3] = tested on: Strain Aichi of type A human influenza virus; type: in vivo; settings: for Survival rate in percent: series with Control - 2 (34.5); for Protection degree in percent: series with Control - 2
[4] = tested on: peripheral blood neutrophils; test: Activity of peripheral blood neutrophils in mice with LLC; type: in vivo, C57BL/6 female mice; settings: compound III 500.0 µg/kg for 10 days
Procedure: Experiments were carried out on C57BL/6 female mice with intramuscularly transplanted LLC carcinoma. Activity of neutrophils was measured by days 11 and 14.
• control - animals with LLC tumor, 10 animals; • animals with LLC tumor + compound III at a dose 500.0 µg/kg for 10 days. 8 animals; • animals with LLC tumor + Cyclophosphane 5 times at a dose 20.0 mg/kg (in 48 hours) for 10 days, 8 animals; • compound III and Cyclophosphane according to the above dosage regimen, 8 animals.
Experiment duration was 14 days.

[5] = tested on: [C^14]-arachidonic acid; test: Metabolism of [C^14]-arachidonic acid in pulmonary tissue homogenate of treated mice; type: in vivo, CBA male mice; settings: CBA mice lung homogenate; 50 µg/kg for three days
Procedure: Studies were carried out on CBA male mice fed a standard vivarium ration. […] Then animals were sacrified, their lungs were taken out, frozen in liquid nitrogen, homogenized in a glass homogenizer manufactured by the Wheaton company (U.S.A.) at +4°C in 10 volumes 0.05 M Tris-HCl buffer. […] Densitometry of the autoradiochromatograms obtained on the X-ray films X-Omat AR (Kodak, U.S.A.) and HS 11 (ORWO, Germany) were performed on the KS 3 densiscan (Kipp and Zonnen, Holland). Quantative analysis of individual eucosanoids was carried out using radiometry of the fractions obtained with high performance liquid chromatography (the Gilson company HPLC-system, France; the Du Pont company ZORBAX C8 column, U.S.A.) and with elution of spots on TLC-plates.

[6] = tested on: Wistar male rats; test: Blood glucose level in rats with streptozotocine diabetes; type: in vivo; settings: for Blood glucose level: Initial level: intragastral four days
Procedure: Experiments were carried out on Wistar male rats weighing 250-300 g. Experimental diabetes was induced with single intravenous injection of streptozotocine (the Synthez cooperative enterprise at the IMBG of the Academy of Sciences of Ukraine) at a dose 42 mg/kg to rats which were preliminarily fasting for 24 hours with access to food immediately following injection. Rats were selected for experiment 2 weeks after diabetes induction with glycemia 120-180 mg/dl. Each group included 12 animals.
The compounds were intragastrally administered to intact animals and to rats with streptozotocine diabetes for four days at daily doses 50 µg/kg and 500 µg/kg in water solution at a rate of 1 ml per 200 g of body mass. Intact animals were given the compounds III and XLIV, and rats with induced diabetes were given the compound XLIV. Check blood glucose level determination was done at the day of experiment, then animals were administered the test compounds and were deprived of food. The control animals received a respective water volume. Effect was estimated by change in blood glucose level in 2 and 5 hours. Then animals received forage and 24 hours after the last drug administration blood was again sampled for examination. 0.1 ml of blood were collected from the tail vein. Glucose level was determined using the o-toluidine method.
Glucose level was calculated in mg/dl using standard glucose solutions. Then the degree of change in glucose level in relation to the initial level was determined for each animal with its expression in percent from the initial level. Final calculation was performed for each group of animals. Each group included 10 animals.

[7] = tested on: mongrel male rats; settings: po, 96 h;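 further: serum drawn 18 h after the final dose from rats deprived of food over that interval, groups of 10 animals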
Procedure: Hypolipidemic activity of the compounds of general formula (I) was studied on the model of experimental hyperlipidemia [Arichi H., Kumura H.O. Effects of stibens compounds of roots of polygonum cuspidatium on the lipid metabolism. […] Each group of animals included 10 rats. […] Blood samples were taken for analysis 18 hours after the last administration of the test substances during which period food was taken away from rats.
The following parameters were determined: total cholesterol (total CS); high density lipoprotein cholesterol (HDL-CS); low density lipoprotein cholesterol and very low density lipoprotein cholesterol (LDL-CS and VLDL-CS); triglycerides (TG). Blood serum CS level was determined according to the Ilk method [Biochemical examination in the clinic. […] HDL-CS level was measured in supernatant following heparine-manganese precipitation of LDL+VLDL [Titov V.N., Brener E.D., Khaltaiev N.G., Zadoya A.A., Tvorogova M.G. A method and diagnostic significance of cholesterol level study in α-lipoproteins. […] LDL-CS level determination was carried out by calculation according to the formula presented in the work Friedwald W.T. [Friedwald W.T., Levy K.J., Leus R. Fat transport in lipoproteins: an integrated approach to mechanism and disorders.
To assess the effect of the test compounds on the ratio of atherogenic and antiatherogenic blood serum lipoproteins, cholesterol index (Kcs) was calculated according to the formula presented in the work [Klimov A.N., Nikulcheva N.G. Lipoproteins, dylipoproteinemias and atherosclerosis.
Blood serum TG level was determined using the conventional method [Friedwald W.T., Levy R.I., Fredrickson D.S. Estimation of concentration of low-density lipoprotein cholesterol in plasma, without use of preparative ultracentrifuge.

[8] = tested on: mongrel guinea-pigs; settings: po, 0.05 mg/kg

O=C(O)CCCC(=O)NCCc1c[nH]cn1 [compound III, N-GLUTARYLHISTAMINE]
Weight of years (g) left [1]: 15.4 ± 1.12 g
Reaction inhibition (%) ([1]; mice, TCB, 1% ointment): 38%
weight increment ([1]; mice, TCB, 1% ointment): 4.9 ± 0.5 g
Chemiluminiscence intensity (mV) + σn-1 ([2]; 0.1 mM, control of the series as in the table): 5670 ± 379 mV
relative effect: 1+/I- ([2]; 1 mM): 0.72
Chemiluminiscence intensity (mV) + σn-1 ([2]; 1 mM, control of the series 5616 ± 173, 5391 ± 195, 7290 ± 128 or 6776 ± 150): 4027 ± 683 mV
MLT ([3]; series with Control - 2 (9.1), 50 µg/kg orally, 3 days before and 10 days following infection): 10.1 days
MLT, days ([3]; series with Control - 2 (9.1), 500 µg/kg orally, 3 days before and 10 days following infection): 11.5*^2 days
Survival rate in percent ([3]; 50 µg/kg orally): 86.6*^2%
Survival rate in percent ([3]; 500 µg/kg orally): 76.6*^2%
Protection degree in percent ([3]; 50 µg/kg orally): 52.1%
Protection degree in percent ([3]; 500 µg/kg orally): 42.2%
Percent of active neutrophils ([4]; Background): 20.1 ± 2.7%
Percent of active neutrophils ([4]; day 11): 9.3 ± 1.7%
Percent of active neutrophils ([4]; day 14): 15.3 ± 4.3%
5-HETE+HHT, percent of AA conversion [5]: 13.64 ± 0.26% of AA conversion
6-keto-PGF1α, percent of AA conversion [5]: 7.95 ± 0.28% of AA conversion
12-, 15-HETE, percent of AA conversion [5]: 23.82 ± 0.82% of AA conversion
PGE2, percent of AA conversion [5]: 3.07 ± 0.11% of AA conversion
PGF2α, percent of AA conversion [5]: 8.05 ± 0.15% of AA conversion
Phospholipids, percent of AA conversion [5]: 7.41 ± 0.25% of AA conversion
TXB2, percent of AA conversion [5]: 5.76 ± 0.24% of AA conversion
Unmetabolized AA, percent of AA conversion [5]: 15.32 ± 1.56% of AA conversion
Blood glucose level in 2 hours, percent from the initial level ([6]; 50 µg/kg): 65.4 ± 4.3%
Blood glucose level in 5 hours, percent from the initial level ([6]; 50 µg/kg): 43.9 ± 4.9%
Blood glucose level in 24 hours, percent from the initial level ([6]; 50 µg/kg): 83.7 ± 6.6%
Blood glucose level: mg/dl in 2 hours ([6]; 50 µg/kg): 94.4 ± 5.4 mg/dL
Blood glucose level: mg/dl in 5 hours ([6]; 50 µg/kg): 64.1 ± 5.0 mg/dL
Blood glucose level: mg/dl in 24 hours ([6]; 50 µg/kg): 122.2 ± 9.2 mg/dL
Blood glucose level in 2 hours, percent from the initial level ([6]; 500 µg/kg): 67.6 ± 3.6%
Blood glucose level in 5 hours, percent from the initial level ([6]; 500 µg/kg): 44.9 ± 4.5%
Blood glucose level in 24 hours, percent from the initial level ([6]; 500 µg/kg): 98.9 ± 10.2%
Blood glucose level: mg/dl in 2 hours ([6]; 500 µg/kg): 98.8 ± 5.6 mg/dL
Blood glucose level: mg/dl in 5 hours ([6]; 500 µg/kg): 65.1 ± 1.1 mg/dL
Blood glucose level: mg/dl in 24 hours ([6]; 500 µg/kg): 143.4 ± 10.9 mg/dL
Blood glucose level: Initial level ([6]; 50 µg/kg): 146.9 ± 8.2 mg/dL
Blood glucose level: Initial level ([6]; 500 µg/kg): 145.2 ± 10.6 mg/dL
HDL-CS ([7]; 0.05 mg/kg): 46,1±2,8**^A
Kcs ([7]; 0.05 mg/kg): 0,9±0,04***^A
LDL-CS+ VLDL-CS ([7]; 0.05 mg/kg): 41,7±3,1***^A
Total CS ([7]; 0.05 mg/kg): 87,8±2,8*^A
Triglycerides ([7]; 0.05 mg/kg): 136,4±9,7
HDL-CS ([7]; 0.5 mg/kg): 53,1±6,2*^A
Kcs ([7]; 0.5 mg/kg): 0,62±0,05***^A
LDL-CS+ VLDL-CS ([7]; 0.5 mg/kg): 33,1±2,9***^A
Total CS ([7]; 0.5 mg/kg): 86,2±5,6
Triglycerides ([7]; 0.5 mg/kg): 90,0±6,7***^A
Anaphylactic index [8]: 0.83*
Seizures in percent [8]: 13,3* percent
